Measured values published in US12109283B2, “Safe and ecofriendly persistent sanitizing gel for topical application” (GALAXY SURFACTANTS LTD., priority 2021, dated 2024).

Test: UV absorbing power (E1% 1 cm)
Format: physicochemical
Conditions: at the λmax printed in Table 1 (290 nm or 305 nm)
From the text: Fatty acids of Tung seed oil have good UV absorbing power as is evident from its conjugated system and from its E1% 1 cm of 1600 at 270 nm and 360 at 290 nm. These UV absorbing fatty acids can not only protect the ingredients of the formulations but also the skin and hair from the ravages of solar radiation when the formulations are applied. […] UV B radiation of solar spectrum is the most damaging since it causes skin cancer.
Both homosalate and Octyl salicylates are popular sunscreen molecules all over the world.

E1 %: 180
SMILES: CC1CC(OC(=O)c2ccccc2O)CC(C)(C)C1 (stereo not shown) [Homosalate (118-56-9), Homosalate]
